Source: ChEMBL document CHEMBL1150642, “Hirsutellide A, a new antimycobacterial cyclohexadepsipeptide from the entomopathogenic fungus Hirsutella kobayasii” (J Nat Prod, 2002)
≈ marks a conversion by molar mass, not a printed value. Where a SMILES comes first, the peptide text is derived from it. [ ]: non-standard residue; d: D form. aIle = CC[C@@H](C)[C@H](N)C(=O)O; dPhLac = O=C(O)[C@H](O)Cc1ccccc1; Sar = CNCC(=O)O

Legend:
Plasmodium falciparum = assay: Antimalarial activity as reduced parasitaemia against multidrug-resistant Plasmodium falciparum K1 by [3H]hypoxanthine uptake; format: functional, organism-based
[1] = Cytotoxicity against human BC1 cells; format: functional, cell-based
Vero = assay: Cytotoxicity against african green monkey Vero cells at 50 ug/mL by SRB assay; format: cell-based; conditions: Chlorocebus sabaeus
[2] = test system: Mycobacterium tuberculosis; assay: Antimycobacterial activity against Mycobacterium tuberculosis H37Ra by Microplate Alamar Blue Assay; format: functional

**Q.** For `C[C@@H]1CC[C@H]2[C@@H](C)C(=O)O[C@@H]3O[C@@]4(C)CC[C@@H]1[C@]32OO4` [ARTEMISININ], which IC50 (Plasmodium falciparum) is on record?
**A.** Its IC50 is 1 ng/mL (≈ 0.00354 µM).

**Q.** With `Cc1c2ccncc2c(C)c2c1[nH]c1ccccc12` [ELLIPTECINE] as the compound, how does the IC50 [1] read?
**A.** Its IC50 is 0.3 µg/mL (≈ 1.22 µM).

**Q.** Which results are given for `CC[C@@H](C)[C@@H]1NC(=O)[C@@H](Cc2ccccc2)OC(=O)CN(C)C(=O)[C@H]([C@H](C)CC)NC(=O)[C@@H](Cc2ccccc2)OC(=O)CN(C)C1=O` [HIRSUTELLIDE A] (cyclo([Sar][dPhLac][aIle][Sar][dPhLac][aIle]))?
**A.** IC50 (Vero): 2.8 µg/mL (≈ 4.21 µM); Activity (Plasmodium falciparum): Not toxic; MIC [2]: 6 µg/mL (≈ 9.03 µM)

**Q.** Which MIC [2] does the source give for `NNC(=O)c1ccncc1` [ISONIAZID] here?
**A.** Its MIC is 0.04 µg/mL (≈ 0.292 µM).

**Q.** Which MIC [2] does the source give for `NC[C@H]1O[C@H](O[C@H]2[C@H](O)[C@@H](O[C@H]3O[C@H](CO)[C@@H](O)[C@H](N)[C@H]3O)[C@H](N)C[C@@H]2N)[C@H](O)[C@@H](O)[C@@H]1O.O=S(=O)(O)O` [KANAMYCIN SULFATE] here?
**A.** The MIC was 2 µg/mL.
